{"source": "patent US20110201550A1", "about": "“COMBINATION OF AMIDINE DERIVATIVES WITH CYCLIC DEPSIPEPTIDES” (Bayer Animal Health GMBH, priority 2008, published 2011)", "system": "Nippostrongylus brasiliensis", "test": "In-vitro experiments with adult Nippostrongylus brasiliensis: acetylcholine esterase activity in the incubation medium", "assay_type": "cell-based", "set-up": "key: 0=no activity (<50% enzyme inhibition); 1=weak activity; 2=good activity; 3=full activity", "protocol": "Test Method for In-Vitro Experiments with Nippostrongylus brasiliensis\nAdult Nippostrongylus brasiliensis were isolated from the small intestine of female Wistar rats and transferred into 0.9% NaCl containing 20 μg/ml sisomycin and 2 μg/ml Canesten. The groups of worms (both sexes) were incubated in 1.0 ml of medium, which was also used for determining the acetylcholine esterase activity. The incubation and the enzyme assay were described in the paper by Rapson et al. (1987) Z. Parasitenkunde 73, 190-191. […] The controls only contained DMSO. The acetylcholine esterase activity in the incubation medium was determined in accordance with the above publication.\nThe efficacy was categorized by means of a scale 0-3, where 0=no activity (<50% enzyme inhibition); 1=weak activity; 2=good activity; 3=full activity", "data": [{"compound": "COCC(=O)Nc1ccc(/N=C(\\C)N(C)C)cc1", "note": "[Amidantel, amidantel]", "values": [{"measurement": "efficacy (scale 0-3, acetylcholine esterase inhibition)", "setting": "Amidantel 10 ppm alone (PF1022A 0 ppm)", "value": 1}, {"measurement": "efficacy (scale 0-3, acetylcholine esterase inhibition)", "setting": "Amidantel 50 ppm alone (PF1022A 0 ppm)", "value": 1}, {"measurement": "efficacy (scale 0-3, acetylcholine esterase inhibition)", "setting": "Amidantel 100 ppm alone (PF1022A 0 ppm)", "value": 1}]}, {"compound": "C/C(=N\\c1ccc(N)cc1)N(C)C", "note": "[Bay d 9216]", "values": [{"measurement": "efficacy (scale 0-3, acetylcholine esterase inhibition)", "setting": "Bay d 9216 1 ppm alone (PF1022A 0 ppm)", "value": 1}, {"measurement": "efficacy (scale 0-3, acetylcholine esterase inhibition)", "setting": "Bay d 9216 5 ppm alone (PF1022A 0 ppm)", "value": 1}, {"measurement": "efficacy (scale 0-3, acetylcholine esterase inhibition)", "setting": "Bay d 9216 10 ppm alone (PF1022A 0 ppm)", "value": 1}]}, {"compound": "CC(C)CC1C(=O)OC(Cc2ccccc2)C(=O)N(C)C(CC(C)C)C(=O)OC(C)C(=O)N(C)C(CC(C)C)C(=O)OC(Cc2ccccc2)C(=O)N(C)C(CC(C)C)C(=O)OC(C)C(=O)N1C", "note": "(stereo not drawn) [PF1022A]", "values": [{"measurement": "efficacy (scale 0-3, acetylcholine esterase inhibition)", "setting": "PF1022A 0.01 ppm alone (Amidantel 0 ppm)", "value": 1}, {"measurement": "efficacy (scale 0-3, acetylcholine esterase inhibition)", "setting": "PF1022A 0.01 ppm alone (Bay d 9216 0 ppm)", "value": 1}, {"measurement": "efficacy (scale 0-3, acetylcholine esterase inhibition)", "setting": "PF1022A 0.05 ppm alone (Amidantel 0 ppm)", "value": 1}, {"measurement": "efficacy (scale 0-3, acetylcholine esterase inhibition)", "setting": "PF1022A 0.05 ppm alone (Bay d 9216 0 ppm)", "value": 1}, {"measurement": "efficacy (scale 0-3, acetylcholine esterase inhibition)", "setting": "PF1022A 0.1 ppm alone (Amidantel 0 ppm)", "value": 2}, {"measurement": "efficacy (scale 0-3, acetylcholine esterase inhibition)", "setting": "PF1022A 0.1 ppm alone (Bay d 9216 0 ppm)", "value": 2}]}]}
